Source: the NIST ThermoML archive (doi:10.1021/je800756r)
Where “and” joins values, the source holds several entries; their conditions need not be identical. Equal entries are not always repeated. Numbers after ± are expanded uncertainties.

Assay: xn = mol fraction of the nth substance listed
Settings: Capillary rise

FCF [difluoromethane] + CCC
Settings | surface tension liquid-gas
280 K, x2 = 0.01 | 9.7 ± 0.4 mN/m
280 K, x2 = 0.013 | 9.4 ± 0.4 mN/m
280 K, x2 = 0.037 | 9.5 ± 0.4 mN/m
280 K, x2 = 0.07 | 9 ± 0.4 mN/m
280 K, x2 = 0.087 | 8.7 ± 0.4 mN/m
280 K, x2 = 0.092 | 8.4 ± 0.4 mN/m
280 K, x2 = 0.115 | 8.5 ± 0.4 mN/m
280 K, x2 = 0.12 | 8.4 ± 0.4 mN/m
280 K, x2 = 0.121 | 8 ± 0.4 mN/m
280 K, x2 = 0.123 | 8.2 ± 0.4 mN/m
280 K, x2 = 0.124 | 8.2 ± 0.4 mN/m
280 K, x2 = 0.131 | 7.9 ± 0.4 mN/m
280 K, x2 = 0.141 | 8 ± 0.4 mN/m
280 K, x2 = 0.515 | 6.4 ± 0.4 mN/m
280 K, x2 = 0.588 | 6.5 ± 0.4 mN/m
280 K, x2 = 0.605 | 6.5 ± 0.4 mN/m
280 K, x2 = 0.648 | 6.8 ± 0.4 mN/m and 6.7 ± 0.4 mN/m
280 K, x2 = 0.662 | 6.8 ± 0.4 mN/m
280 K, x2 = 0.682 | 6.8 ± 0.4 mN/m
280 K, x2 = 0.697 | 7 ± 0.4 mN/m
280 K, x2 = 0.706 | 7.1 ± 0.4 mN/m
280 K, x2 = 0.729 | 7.1 ± 0.4 mN/m
280 K, x2 = 0.755 | 7.4 ± 0.4 mN/m
280 K, x2 = 0.775 | 7.4 ± 0.4 mN/m
280 K, x2 = 0.813 | 7.8 ± 0.4 mN/m
280 K, x2 = 0.826 | 7.8 ± 0.4 mN/m
280 K, x2 = 0.898 | 8.4 ± 0.4 mN/m
280 K, x2 = 0.931 | 8.8 ± 0.4 mN/m
280 K, x2 = 0.942 | 8.9 ± 0.4 mN/m
280 K, x2 = 0.968 | 9.1 ± 0.4 mN/m
290 K, x2 = 0.002 | 8.1 ± 0.4 mN/m
290 K, x2 = 0.003 | 8 ± 0.4 mN/m
290 K, x2 = 0.004 | 8 ± 0.4 mN/m
290 K, x2 = 0.005 | 7.9 ± 0.4 mN/m
290 K, x2 = 0.039 | 7.5 ± 0.4 mN/m
290 K, x2 = 0.065 | 7.2 ± 0.4 mN/m
290 K, x2 = 0.078 | 7 ± 0.4 mN/m
290 K, x2 = 0.081 | 7.2 ± 0.4 mN/m
290 K, x2 = 0.09 | 7.1 ± 0.4 mN/m
290 K, x2 = 0.095 | 6.9 ± 0.4 mN/m
290 K, x2 = 0.097 | 6.9 ± 0.4 mN/m
290 K, x2 = 0.114 | 6.6 ± 0.4 mN/m
290 K, x2 = 0.143 | 6.5 ± 0.4 mN/m
290 K, x2 = 0.156 | 6.3 ± 0.4 mN/m
290 K, x2 = 0.175 | 5.9 ± 0.4 mN/m
290 K, x2 = 0.185 | 5.9 ± 0.4 mN/m
290 K, x2 = 0.198 | 6 ± 0.4 mN/m
290 K, x2 = 0.209 | 5.7 ± 0.4 mN/m
290 K, x2 = 0.485 | 5 ± 0.4 mN/m
290 K, x2 = 0.506 | 4.9 ± 0.4 mN/m
290 K, x2 = 0.525 | 5 ± 0.4 mN/m
290 K, x2 = 0.539 | 5.1 ± 0.4 mN/m
290 K, x2 = 0.58 | 5.1 ± 0.4 mN/m
290 K, x2 = 0.596 | 5.1 ± 0.4 mN/m
290 K, x2 = 0.604 | 5.2 ± 0.4 mN/m
290 K, x2 = 0.648 | 5.6 ± 0.4 mN/m
290 K, x2 = 0.691 | 5.9 ± 0.4 mN/m
290 K, x2 = 0.768 | 6.1 ± 0.4 mN/m
290 K, x2 = 0.805 | 6.4 ± 0.4 mN/m
290 K, x2 = 0.896 | 7 ± 0.4 mN/m
290 K, x2 = 0.917 | 7.3 ± 0.4 mN/m
290 K, x2 = 0.925 | 7.4 ± 0.4 mN/m
290 K, x2 = 0.975 | 7.7 ± 0.4 mN/m
290 K, x2 = 0.986 | 7.9 ± 0.4 mN/m
290 K, x2 = 0.999 | 8.1 ± 0.4 mN/m
300 K, x2 = 0.02 | 6 ± 0.4 mN/m
300 K, x2 = 0.045 | 5.7 ± 0.4 mN/m
300 K, x2 = 0.087 | 5.4 ± 0.4 mN/m
300 K, x2 = 0.11 | 5.2 ± 0.4 mN/m
300 K, x2 = 0.12 | 5 ± 0.4 mN/m
300 K, x2 = 0.124 | 5 ± 0.4 mN/m
300 K, x2 = 0.149 | 4.6 ± 0.4 mN/m
300 K, x2 = 0.154 | 4.7 ± 0.4 mN/m
300 K, x2 = 0.22 | 4.1 ± 0.4 mN/m
300 K, x2 = 0.573 | 4 ± 0.4 mN/m
300 K, x2 = 0.682 | 4.5 ± 0.4 mN/m
300 K, x2 = 0.692 | 4.7 ± 0.4 mN/m
300 K, x2 = 0.703 | 4.7 ± 0.4 mN/m
300 K, x2 = 0.744 | 4.9 ± 0.4 mN/m
300 K, x2 = 0.748 | 5.1 ± 0.4 mN/m
300 K, x2 = 0.761 | 5 ± 0.4 mN/m
300 K, x2 = 0.771 | 5.1 ± 0.4 mN/m
300 K, x2 = 0.782 | 5.1 ± 0.4 mN/m
300 K, x2 = 0.79 | 5.2 ± 0.4 mN/m
300 K, x2 = 0.824 | 5.5 ± 0.4 mN/m
300 K, x2 = 0.834 | 5.4 ± 0.4 mN/m
300 K, x2 = 0.838 | 5.5 ± 0.4 mN/m
300 K, x2 = 0.852 | 5.6 ± 0.4 mN/m
300 K, x2 = 0.865 | 5.8 ± 0.4 mN/m
300 K, x2 = 0.881 | 5.8 ± 0.4 mN/m
300 K, x2 = 0.893 | 6 ± 0.4 mN/m
300 K, x2 = 0.897 | 5.9 ± 0.4 mN/m
300 K, x2 = 0.911 | 6 ± 0.4 mN/m
300 K, x2 = 0.918 | 6.2 ± 0.4 mN/m
300 K, x2 = 0.938 | 6.4 ± 0.4 mN/m
300 K, x2 = 0.982 | 6.8 ± 0.4 mN/m
300 K, x2 = 0.994 | 6.7 ± 0.4 mN/m
300 K, x2 = 0.999 | 6.9 ± 0.4 mN/m
